# Results published in BindingDB's records for doi:10.1021/jm00021a005 (University of Wisconsin-Madison, 1995).
# Target: Peptidyl-prolyl cis-trans isomerase A, cyclophilin A (Homo sapiens) (UniProt P62937)
# Assay: The compound was tested for inhibition of […] isomerase (PPIase).
# Chain of Peptidyl-prolyl cis-trans isomerase A, cyclophilin A (Homo sapiens) (P62937 whole entry, looked up): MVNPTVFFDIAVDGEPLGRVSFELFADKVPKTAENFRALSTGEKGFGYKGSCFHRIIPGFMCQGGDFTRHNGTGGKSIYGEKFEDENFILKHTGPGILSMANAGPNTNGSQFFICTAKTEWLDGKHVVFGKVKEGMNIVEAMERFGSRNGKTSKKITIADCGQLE
row,Ki,SMILES
1,6 nM,"C/C=C/CC(C)[C@@H](O)[C@H]1C(=O)N[C@@H](CC)C(=O)N(C)CC(=O)N(C)[C@@H](CC(C)C)C(=O)N[C@@H](C(C)C)C(=O)N(C)[C@H](CC(C)C)C(=O)N[C@H](Cc2ccccc2)C(=O)N[C@@H](CO)C(=O)N(C)[C@H](CC(C)C)C(=O)N(C)[C@@H](CC(C)C)C(=O)N(C)[C@H](C(C)C)C(=O)N1C (stereo partly drawn) [15-Benzyl-30-ethyl-12-hydroxymethyl-33-(1-hydroxy-2-methyl-hex-4-enyl)-6,9,18,24-tetraisobutyl-3,21-diisopropyl-1,4,7,10,19,25,28-heptamethyl-1,4,7,10,13,16,19,22,25,28,31undecaaza-cyclotritriacontan-2,5,8,11,14,17,20,23,26,29,32-undecaone]"
2,6 nM,"C/C=C/CC(C)C(O)[C@H]1C(=O)N[C@@H](CC)C(=O)N(C)[C@H](C)C(=O)N(C)[C@@H](CC(C)C)C(=O)N[C@@H](C(C)C)C(=O)N(C)[C@H](CC(C)C)C(=O)N[C@H](Cc2ccccc2)C(=O)N[C@H](C)C(=O)N(C)[C@H](CC(C)C)C(=O)N(C)[C@@H](CC(C)C)C(=O)N(C)[C@H](C(C)C)C(=O)N1C (stereo partly drawn) [15-Benzyl-30-ethyl-33-(1-hydroxy-2-methyl-hex-4-enyl)-6,9,18,24-tetraisobutyl-3,21-diisopropyl-1,4,7,10,12,19,25,27,28-nonamethyl-1,4,7,10,13,16,19,22,25,28,31undecaaza-cyclotritriacontan-2,5,8,11,14,17,20,23,26,29,32-undecaone]"
3,33 nM,"C/C=C/CC(C)[C@@H](O)[C@H]1C(=O)N[C@@H](CC)C(=O)N(C)CC(=O)N(C)[C@@H](CC(C)C)C(=O)N[C@@H](C(C)C)C(=O)N(C)[C@H](CC(C)C)C(=O)N[C@H](Cc2ccccc2)C(=O)N[C@H](C)C(=O)N(C)[C@H](CC(C)C)C(=O)N(C)[C@@H](CC(C)C)C(=O)N(C)[C@H](C(C)C)C(=O)N1C (stereo partly drawn) [15-Benzyl-30-ethyl-33-(1-hydroxy-2-methyl-hex-4-enyl)-6,9,18,24-tetraisobutyl-3,21-diisopropyl-1,4,7,10,12,19,25,28-octamethyl-1,4,7,10,13,16,19,22,25,28,31undecaaza-cyclotritriacontan-2,5,8,11,14,17,20,23,26,29,32-undecaone]"
